{"source": "paper PMC6934184", "about": "“Selective DNA-PKcs inhibition extends the therapeutic index of localized radiotherapy and chemotherapy” (The Journal of Clinical Investigation, 2019)", "molecular_target": "T1, TXK (Homo sapiens, UniProt P42681)", "T1 construct": "purchased Thermo Fisher Scientific (Life Technologies) SelectScreen", "T1 sequence (P42681 whole entry)": "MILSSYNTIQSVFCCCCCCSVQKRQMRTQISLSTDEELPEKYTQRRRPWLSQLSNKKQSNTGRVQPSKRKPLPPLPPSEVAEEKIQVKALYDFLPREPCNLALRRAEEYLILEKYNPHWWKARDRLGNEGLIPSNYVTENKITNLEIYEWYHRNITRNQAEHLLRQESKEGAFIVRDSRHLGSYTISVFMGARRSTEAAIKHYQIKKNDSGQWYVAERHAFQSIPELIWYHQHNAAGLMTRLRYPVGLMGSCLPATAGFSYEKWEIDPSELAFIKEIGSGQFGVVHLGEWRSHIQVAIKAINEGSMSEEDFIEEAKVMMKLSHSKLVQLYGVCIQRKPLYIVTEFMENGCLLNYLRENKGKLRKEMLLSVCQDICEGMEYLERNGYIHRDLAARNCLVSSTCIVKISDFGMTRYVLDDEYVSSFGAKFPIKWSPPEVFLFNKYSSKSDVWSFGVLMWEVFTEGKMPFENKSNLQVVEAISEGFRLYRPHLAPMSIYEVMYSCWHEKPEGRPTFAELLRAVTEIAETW", "experiment": "SelectScreen Z'LYTE", "format": "biochemical", "procedure,_shortened": "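SelectScreen broad panel; activity (Z'LYTE, Adapta) plus binding formats. ATP: Km app for CSF1R Z'LYTE; 10 for CAMK1 Adapta. Readout = % per kinase.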", "data": [{"smiles": "CN(C(=O)CN1CCOCC1)c1ccc2sc3c(-c4cccc5c(=O)cc(N6CC7CCC(C6)O7)oc45)cccc3c2c1", "note": "[NU5455]", "values": [{"measurement": "inhibition at 1 µM", "result": -2.9, "unit": "%"}]}]}
